Reference: patent US20190358369A1, “Drug releasing coatings for medical devices and methods of making same” (BIOTRONIK AG, priority 2016, published 2019)
Read-outs that look alike come from different tables or passages of the source.

Columns and labels:
[1] = molecular target: bovine serum albumin (BSA) (Bos taurus, UniProt P02769); assay: Albumin binding by ammonium sulfate precipitation and LCMS; format: in vitro ADME; settings: bovine serum albumin (BSA) solution, 10 uM drug, 1.4 mg/mL BSA in normal saline, 30 minutes ambient, supernatant, average of four separate days
Experimental: Sirolimus-albumin binding has previously been reported. […] The drug spiked BSA solutions were mixed by inversion and allowed to equilibrate at ambient temperature for 30 minutes to allow drug binding to the albumin protein. 826 mg ammonium sulfate was next added to each sample and mixed by gentle inversion until the salt had completely dissolved and precipitate formed. Samples were then vortexed for 20 seconds then centrifuged for 6.5 minutes at 7200×g. To both supernatant and separated precipitate 0.750 mL methanol and 0.250 mL acetonitrile containing internal standard was added to each sample. Samples were tested for drug content by LCMS where the supernatant amount represents unbound drug and the precipitate amount the bound drug. Recovery verifiction tests were performed as above but using solutions of saline plus drug without BSA.
Values reported are the average of a separate test on each of four separate days.

[2] = Porcine Coronary Arteries, from US 2014/0046254, cited from earlier work

bovine serum albumin (BSA), sequence (P02769 25-607): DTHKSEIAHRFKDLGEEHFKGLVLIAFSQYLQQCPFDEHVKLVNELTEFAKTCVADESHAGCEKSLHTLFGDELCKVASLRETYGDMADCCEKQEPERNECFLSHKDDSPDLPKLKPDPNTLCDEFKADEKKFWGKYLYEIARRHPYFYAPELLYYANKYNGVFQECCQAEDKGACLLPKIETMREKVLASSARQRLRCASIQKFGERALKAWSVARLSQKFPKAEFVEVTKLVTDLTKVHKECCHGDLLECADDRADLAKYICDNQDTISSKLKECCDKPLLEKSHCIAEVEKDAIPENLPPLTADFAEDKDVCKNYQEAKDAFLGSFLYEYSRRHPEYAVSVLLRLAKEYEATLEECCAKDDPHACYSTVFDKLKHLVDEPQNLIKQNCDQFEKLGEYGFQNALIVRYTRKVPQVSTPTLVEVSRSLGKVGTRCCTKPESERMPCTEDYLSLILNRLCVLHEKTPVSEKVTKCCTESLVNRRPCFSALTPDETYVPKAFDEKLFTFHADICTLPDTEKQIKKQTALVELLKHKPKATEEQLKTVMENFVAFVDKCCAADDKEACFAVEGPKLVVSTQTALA

## CO[C@H]1C[C@@H]2CC[C@@H](C)[C@@](O)(O2)C(=O)C(=O)N2CCCC[C@H]2C(=O)O[C@H]([C@H](C)C[C@@H]2CC[C@@H](O)[C@H](OC)C2)CC(=O)[C@H](C)/C=C(\C)[C@@H](O)[C@@H](OC)C(=O)[C@H](C)C[C@H](C)/C=C/C=C/C=C/1C [Sirolimus]
[1]
  fraction unbound at 30 min, 10 uM: 0.062

## CO[C@H]1C[C@@H]2CC[C@@H](C)[C@@](O)(O2)C(=O)C(=O)N2CCCC[C@H]2C(=O)O[C@H]([C@H](C)C[C@@H]2CC[C@@H](OCCO)[C@H](OC)C2)CC(=O)[C@H](C)/C=C(\C)[C@@H](O)[C@@H](OC)C(=O)[C@H](C)C[C@H](C)/C=C/C=C/C=C/1C [US 2014/0046254 Everolimus, Everolimus]
[2]; 3 days
  Normalized Uptake (ng drug/mg tissue/μg drug on balloon): 0.02 ng/mg/µg

## CO[C@H]1C[C@@H]2CC[C@@H](C)[C@@](O)(O2)C(=O)C(=O)N2CCCC[C@H]2C(=O)O[C@H]([C@H](C)C[C@@H]2CC[C@H](n3cnnn3)[C@H](OC)C2)CC(=O)[C@H](C)/C=C(\C)[C@@H](O)[C@@H](OC)C(=O)[C@H](C)C[C@H](C)/C=C/C=C/C=C/1C [US 2014/0046254 Zotarolimus, Zotarolimus]
[2]; 7 days
  Normalized Uptake (ng drug/mg tissue/μg drug on balloon): 0.04 ng/mg/µg
